The structures appear in SMILES notation.

For experiment [1], the system named is MTC-TT. The experiment is described as follows: Cell viability assay: RET inhibition. The experiment is classed as cell-based, human. Particulars: for IC50: Homo sapiens, 48 h, two days after drug treatment; for inhibition level compared with Vandetinib and Sunitinib: RET induced cancer cell line (MTC-TT). The method, then: To address RET dependent cell viability, the medullary thyroid carcinoma cell line, MTC-TT representing MEN2A was utilized to test compounds of the present invention. MTC-TT were cultured at RPMI containing 15 bovine calf serum (Hyclon™ of Thermo™) and supplemented with 2 mM L-Glutamine The cells were grown at a density of 5×10^4 cells/100 μL/well in duplicate in 96-well plates for one day and treated with different concentrations of test compound. Cell viability for MTC-TT two days after drug treatment was measured by Cell Titer 96 Aqueous One Solution Reagent (Promega™) according to the manufacture instructions.

Experiment [2] has as its target T1, FLT3 (Homo sapiens, UniProt P36888).
T1 construct: truncated human FAK, RET, FLT3, JAK2, and LRRK2; purchased Carna Biosciences
T1 sequence (P36888 564-993 limits assumed): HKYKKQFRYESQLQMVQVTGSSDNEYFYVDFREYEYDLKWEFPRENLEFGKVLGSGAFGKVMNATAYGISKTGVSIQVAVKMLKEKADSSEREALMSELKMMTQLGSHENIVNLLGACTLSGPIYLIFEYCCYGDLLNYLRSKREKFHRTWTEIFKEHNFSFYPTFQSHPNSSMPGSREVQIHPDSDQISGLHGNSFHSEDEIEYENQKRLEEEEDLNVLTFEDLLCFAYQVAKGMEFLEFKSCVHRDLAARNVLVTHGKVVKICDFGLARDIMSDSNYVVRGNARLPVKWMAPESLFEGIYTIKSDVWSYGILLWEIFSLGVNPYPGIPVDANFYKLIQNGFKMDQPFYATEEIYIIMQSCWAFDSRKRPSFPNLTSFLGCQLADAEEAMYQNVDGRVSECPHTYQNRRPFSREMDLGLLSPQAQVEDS
Put plainly: Kinase inhibition assay: FLT3. The experiment is classed as biochemical. The method, then:
(§1) Compounds of the present invention were tested for their capacity to inhibit a kinase panel which includes, but are not limited to, spleen tyrosine kinase (SYK), zeta-chain-associated protein kinase 70 (ZAP70), PTK2B protein tyrosine kinase 2 (PYK2), focal adhesion kinase (FAK), provirus integration of maloney kinase 1 (PIM1), rearranged during transfection kinase (RET), Fms-like tyrosine kinase 3 (FLT3), Janus kinase 2 (JAK2), and leucine-rich repeat kinase 2 (LRRK2).
(§2) Inhibition of SYK, ZAP70, PYK2, FAK, PIM1, RET, FLT3, JAK2 and LRRK2 Kinase Activity
(§3) Compounds of the invention were initially diluted to 10 mM in 100% DMSO (CALBIOCHEM™) for storage and made into kinase buffer solution to create a compound concentration ranging from 1 uM and 10 uM. Serial dilutions of compounds of the invention were dispensed into a 96-well plate (GREINER BIOSCIENCES™) at 6 μL each. Purified full-length human SYK, ZAP70, PIM1, PYK2 and truncated human FAK, RET, FLT3, JAK2, and LRRK2 (CARNA BIOSCIENCES™) were diluted in kinase buffer and added to the compound solutions and pre-incubated for 30 minutes at room temperature (1 hour for PYK2). […] The reaction mixture was incubated for 1 hour (2 hours for PYK2). Following the incubation, the stop solution made with EDTA, water, and Lance detection buffer ([…]™) was added (12μL each) to stop phosphorylation. […] The IC50 value of test compound was calculated at Gradpad Prism 5 unless specified otherwise.

Experiment [3] addresses JAK2 (Homo sapiens, UniProt O60674). The experiment is described as follows: Kinase inhibition assay: JAK2. The experiment is classed as biochemical. Also noted: truncated human FAK, RET, FLT3, JAK2, and LRRK2; purchased Carna Biosciences. The protocol: as §1, §2, §3
Experiment [4] has as its target T2, RET (Homo sapiens, UniProt P07949).
T2 construct: truncated human FAK, RET, FLT3, JAK2, and LRRK2; purchased Carna Biosciences
T2 sequence (P07949 658-1114 limits assumed): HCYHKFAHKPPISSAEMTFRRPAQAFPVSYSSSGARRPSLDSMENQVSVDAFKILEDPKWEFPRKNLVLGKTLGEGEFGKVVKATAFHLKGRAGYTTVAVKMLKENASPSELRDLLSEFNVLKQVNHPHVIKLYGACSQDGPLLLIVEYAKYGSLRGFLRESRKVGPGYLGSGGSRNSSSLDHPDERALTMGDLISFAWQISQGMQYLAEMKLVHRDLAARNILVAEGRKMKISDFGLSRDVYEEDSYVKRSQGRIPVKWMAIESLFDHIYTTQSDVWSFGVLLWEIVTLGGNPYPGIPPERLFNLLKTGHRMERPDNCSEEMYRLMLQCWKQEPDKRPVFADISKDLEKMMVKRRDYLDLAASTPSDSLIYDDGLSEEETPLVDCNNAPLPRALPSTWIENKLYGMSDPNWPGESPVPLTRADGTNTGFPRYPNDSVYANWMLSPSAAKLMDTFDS
The experiment is described as follows: Kinase inhibition assay: RET. The experiment is classed as biochemical. The method, then:
as §1, §2, §3

For experiment [5], the target named is T3, LRRK2 (Homo sapiens, UniProt Q5S007).
T3 construct: truncated human FAK, RET, FLT3, JAK2, and LRRK2; purchased Carna Biosciences
T3 sequence (Q5S007 970-2527 limits assumed): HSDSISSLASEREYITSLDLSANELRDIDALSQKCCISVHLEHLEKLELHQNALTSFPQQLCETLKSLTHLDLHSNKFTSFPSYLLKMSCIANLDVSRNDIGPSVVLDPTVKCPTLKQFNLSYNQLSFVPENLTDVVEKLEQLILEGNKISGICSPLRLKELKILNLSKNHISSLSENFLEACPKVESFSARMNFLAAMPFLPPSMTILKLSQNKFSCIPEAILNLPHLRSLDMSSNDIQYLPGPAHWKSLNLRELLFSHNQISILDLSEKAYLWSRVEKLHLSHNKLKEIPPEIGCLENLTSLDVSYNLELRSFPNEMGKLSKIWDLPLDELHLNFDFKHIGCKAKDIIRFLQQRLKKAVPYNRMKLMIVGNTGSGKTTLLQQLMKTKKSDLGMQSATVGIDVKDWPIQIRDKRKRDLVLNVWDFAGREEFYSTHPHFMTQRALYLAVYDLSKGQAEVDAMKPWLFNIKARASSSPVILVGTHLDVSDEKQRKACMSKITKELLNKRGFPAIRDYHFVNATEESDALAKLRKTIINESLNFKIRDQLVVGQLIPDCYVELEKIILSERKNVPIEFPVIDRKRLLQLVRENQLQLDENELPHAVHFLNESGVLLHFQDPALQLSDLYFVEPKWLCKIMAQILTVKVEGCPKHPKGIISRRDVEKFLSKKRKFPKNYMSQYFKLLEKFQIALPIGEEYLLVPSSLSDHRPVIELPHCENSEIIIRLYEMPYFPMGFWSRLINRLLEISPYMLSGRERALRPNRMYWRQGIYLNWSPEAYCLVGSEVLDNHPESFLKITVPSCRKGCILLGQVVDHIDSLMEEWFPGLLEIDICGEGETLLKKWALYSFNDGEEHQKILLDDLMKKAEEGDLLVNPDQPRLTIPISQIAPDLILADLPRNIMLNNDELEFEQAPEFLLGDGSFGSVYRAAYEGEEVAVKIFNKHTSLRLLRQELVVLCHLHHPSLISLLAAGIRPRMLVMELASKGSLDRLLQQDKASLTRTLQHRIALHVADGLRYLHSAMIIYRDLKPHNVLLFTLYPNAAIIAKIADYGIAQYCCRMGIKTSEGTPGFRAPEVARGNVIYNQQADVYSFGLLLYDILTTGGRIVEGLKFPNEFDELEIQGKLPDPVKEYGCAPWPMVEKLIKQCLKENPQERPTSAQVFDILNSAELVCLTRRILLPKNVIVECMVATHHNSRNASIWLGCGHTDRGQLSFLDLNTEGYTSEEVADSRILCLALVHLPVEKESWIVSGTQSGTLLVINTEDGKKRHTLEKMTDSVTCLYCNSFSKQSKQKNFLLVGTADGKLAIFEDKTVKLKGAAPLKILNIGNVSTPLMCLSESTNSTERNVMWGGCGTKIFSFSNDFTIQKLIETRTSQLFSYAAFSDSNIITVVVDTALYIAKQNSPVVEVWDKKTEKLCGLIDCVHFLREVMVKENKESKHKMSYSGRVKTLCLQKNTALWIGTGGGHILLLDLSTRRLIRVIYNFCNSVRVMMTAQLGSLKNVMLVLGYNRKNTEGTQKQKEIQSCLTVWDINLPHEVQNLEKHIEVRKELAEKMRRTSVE
The experiment is described as follows: Kinase inhibition assay: LRRK2. The experiment is classed as biochemical. The method, then:
as §1, §2, §3

The target of experiment [6] is T4, ZAP70 (Homo sapiens, UniProt P43403).
T4 construct: Purified full-length human SYK, ZAP70, PIM1, PYK2; purchased Carna Biosciences
T4 sequence (P43403 1-619): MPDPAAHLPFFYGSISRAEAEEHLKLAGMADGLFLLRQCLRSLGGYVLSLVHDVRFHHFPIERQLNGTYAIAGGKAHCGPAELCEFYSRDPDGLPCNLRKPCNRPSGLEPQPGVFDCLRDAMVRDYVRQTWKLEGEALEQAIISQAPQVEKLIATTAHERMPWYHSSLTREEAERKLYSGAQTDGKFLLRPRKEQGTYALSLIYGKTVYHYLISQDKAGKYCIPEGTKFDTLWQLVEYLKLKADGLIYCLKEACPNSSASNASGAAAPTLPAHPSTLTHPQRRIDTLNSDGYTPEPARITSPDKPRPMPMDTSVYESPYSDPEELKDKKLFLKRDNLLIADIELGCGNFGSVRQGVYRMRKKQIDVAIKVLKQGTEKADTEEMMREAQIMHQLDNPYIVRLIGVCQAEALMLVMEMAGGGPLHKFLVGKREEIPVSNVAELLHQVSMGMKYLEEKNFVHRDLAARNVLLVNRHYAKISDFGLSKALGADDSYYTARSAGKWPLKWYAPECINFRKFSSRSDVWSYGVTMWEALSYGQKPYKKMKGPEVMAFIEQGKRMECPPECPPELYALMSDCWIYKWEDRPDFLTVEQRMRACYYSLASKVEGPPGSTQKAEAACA
The experiment is described as follows: Kinase inhibition assay: ZAP70. The experiment is classed as biochemical. Particulars: at 1 μM concentration. The protocol: as §1, §2, §3

The target in experiment [7] is T5, SYK (Homo sapiens, UniProt P43405).
T5 construct: Purified full-length human SYK, ZAP70, PIM1, PYK2; purchased Carna Biosciences
The experiment is described as follows: Kinase inhibition assay: SYK. The experiment is classed as biochemical. As to conditions: at 1 μM concentration. The method, then:
as §1, §2, §3

For experiment [8], the target named is T6, FAK (Homo sapiens, UniProt Q05397).
T6 construct: truncated human FAK, RET, FLT3, JAK2, and LRRK2; purchased Carna Biosciences
T6 sequence (Q05397 376-1052 limits assumed): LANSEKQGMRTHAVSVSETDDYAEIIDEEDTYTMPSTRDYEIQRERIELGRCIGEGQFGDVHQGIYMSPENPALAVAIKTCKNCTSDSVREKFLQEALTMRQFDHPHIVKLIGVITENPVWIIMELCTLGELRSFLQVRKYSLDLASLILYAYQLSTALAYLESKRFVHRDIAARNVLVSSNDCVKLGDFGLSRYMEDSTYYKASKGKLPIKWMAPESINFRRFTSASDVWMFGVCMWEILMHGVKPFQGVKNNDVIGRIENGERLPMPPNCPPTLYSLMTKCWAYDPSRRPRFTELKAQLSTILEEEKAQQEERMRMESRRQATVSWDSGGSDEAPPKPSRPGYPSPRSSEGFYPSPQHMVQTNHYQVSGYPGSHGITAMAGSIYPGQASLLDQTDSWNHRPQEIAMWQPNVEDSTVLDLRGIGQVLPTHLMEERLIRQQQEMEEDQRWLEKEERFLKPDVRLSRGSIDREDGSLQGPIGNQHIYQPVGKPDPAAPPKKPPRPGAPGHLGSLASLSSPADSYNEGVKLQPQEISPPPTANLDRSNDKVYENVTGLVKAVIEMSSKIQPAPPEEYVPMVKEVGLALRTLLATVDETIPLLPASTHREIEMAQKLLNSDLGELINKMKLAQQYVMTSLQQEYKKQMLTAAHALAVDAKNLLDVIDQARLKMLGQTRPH
The experiment is described as follows: Kinase inhibition assay: FAK. As to conditions: at 1 μM concentration. It is filed as biochemical. The protocol: as §1, §2, §3

The target of experiment [9] is T7, PYK2 (Homo sapiens, UniProt Q14289).
T7 construct: Purified full-length human SYK, ZAP70, PIM1, PYK2; purchased Carna Biosciences
T7 sequence (Q14289 whole entry): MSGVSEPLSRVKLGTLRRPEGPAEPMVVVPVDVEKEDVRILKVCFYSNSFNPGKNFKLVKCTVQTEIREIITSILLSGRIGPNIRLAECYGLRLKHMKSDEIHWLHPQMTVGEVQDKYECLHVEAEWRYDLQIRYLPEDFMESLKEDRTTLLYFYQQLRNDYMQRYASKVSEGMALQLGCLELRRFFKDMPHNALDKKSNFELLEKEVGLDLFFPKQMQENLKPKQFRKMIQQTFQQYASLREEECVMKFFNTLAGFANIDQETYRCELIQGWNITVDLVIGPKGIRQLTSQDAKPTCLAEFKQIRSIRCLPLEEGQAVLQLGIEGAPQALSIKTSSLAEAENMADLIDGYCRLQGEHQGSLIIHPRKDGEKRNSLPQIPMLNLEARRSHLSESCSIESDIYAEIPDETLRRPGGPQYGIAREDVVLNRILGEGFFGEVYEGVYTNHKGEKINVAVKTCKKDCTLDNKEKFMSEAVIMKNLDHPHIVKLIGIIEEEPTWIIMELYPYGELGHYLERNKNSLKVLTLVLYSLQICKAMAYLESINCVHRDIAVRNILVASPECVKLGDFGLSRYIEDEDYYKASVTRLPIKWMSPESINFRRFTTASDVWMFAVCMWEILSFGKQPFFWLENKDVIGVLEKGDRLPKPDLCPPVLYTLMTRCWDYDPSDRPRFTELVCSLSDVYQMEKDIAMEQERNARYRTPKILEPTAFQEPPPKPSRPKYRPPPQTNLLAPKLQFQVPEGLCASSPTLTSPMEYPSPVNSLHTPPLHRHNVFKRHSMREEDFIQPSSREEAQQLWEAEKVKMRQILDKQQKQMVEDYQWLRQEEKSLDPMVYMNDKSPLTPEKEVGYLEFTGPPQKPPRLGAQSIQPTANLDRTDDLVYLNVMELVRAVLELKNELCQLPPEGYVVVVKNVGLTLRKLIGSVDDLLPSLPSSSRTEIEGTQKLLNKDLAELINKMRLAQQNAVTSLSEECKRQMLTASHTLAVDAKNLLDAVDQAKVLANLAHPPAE
Put plainly: Kinase inhibition assay: PYK2. It is filed as biochemical. Particulars: at 1 μM concentration. The protocol: as §1, §2, §3

The target in experiment [10] is T8, PIM1 (Homo sapiens, UniProt P11309).
T8 construct: Purified full-length human SYK, ZAP70, PIM1, PYK2; purchased Carna Biosciences
T8 sequence (P11309 whole entry): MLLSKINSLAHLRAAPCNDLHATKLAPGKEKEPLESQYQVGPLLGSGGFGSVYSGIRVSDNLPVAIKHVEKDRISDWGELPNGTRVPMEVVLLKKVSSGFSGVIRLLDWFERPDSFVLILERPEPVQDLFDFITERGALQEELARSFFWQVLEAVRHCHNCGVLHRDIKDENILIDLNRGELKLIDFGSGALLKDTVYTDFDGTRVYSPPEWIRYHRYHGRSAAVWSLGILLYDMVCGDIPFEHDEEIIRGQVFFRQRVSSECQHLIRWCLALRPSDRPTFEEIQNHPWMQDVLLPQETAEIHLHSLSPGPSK
Put plainly: Kinase inhibition assay: PIM1. It is filed as biochemical. Particulars: at 1 μM concentration. The protocol: as §1, §2
Compounds of the invention were initially diluted to 10 mM in 100% DMSO (CALBIOCHEM™) for storage and made into kinase buffer solution to create a compound concentration ranging from 1 uM and 10 uM. Serial dilutions of compounds of the invention were dispensed into a 96-well plate (GREINER BIOSCIENCES™) at 6 μL each. Purified full-length human SYK, ZAP70, PIM1, PYK2 and truncated human FAK, RET, FLT3, JAK2, and LRRK2 (CARNA BIOSCIENCES™) were diluted in kinase buffer and added to the compound solutions and pre-incubated for 30 minutes at room temperature (1 hour for PYK2). […] The reaction mixture was incubated for 1 hour (2 hours for PYK2). Following the incubation, the stop solution made with EDTA, water, and Lance detection buffer ([…]™) was added (12μL each) to stop phosphorylation. […] Substrate phosphorylation was a function of the 665 nm emission measured following the addition of the detection solution and 50 minutes of incubation. The IC50 value of test compound was calculated at Gradpad Prism 5 unless specified otherwise.

JAK2, sequence (O60674 826-1132 limits assumed): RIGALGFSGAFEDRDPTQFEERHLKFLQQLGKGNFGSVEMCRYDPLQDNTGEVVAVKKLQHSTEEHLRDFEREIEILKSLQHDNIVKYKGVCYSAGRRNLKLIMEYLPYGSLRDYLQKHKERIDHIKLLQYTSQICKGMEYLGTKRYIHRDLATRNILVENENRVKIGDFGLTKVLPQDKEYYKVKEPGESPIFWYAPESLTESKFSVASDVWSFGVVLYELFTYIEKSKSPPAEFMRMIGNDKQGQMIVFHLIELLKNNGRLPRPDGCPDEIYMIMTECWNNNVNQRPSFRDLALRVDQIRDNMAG

A word on the IC50: it is the concentration at which inhibition is half-maximal. For `COc1cc(Nc2ncc(C)c(-n3cc(C)c(CN4CCN(CCO)CC4)c3)n2)cc(OC)c1OC` [Compound 40, 2-(4-((4-methyl-1-(5-methyl-2-(3,4,5-trimethoxyphenylamino)pyrimidin-4-yl)-1H-pyrrol-3-yl)methyl)piperazin-1-yl)ethanol], the IC50 in experiment [1] came to 78.4 nM; in experiment [2], 0.17 nM; in experiment [3], 3.7 nM; in experiment [4] it was 10.2 nM; in experiment [5], 275 nM. In experiment [1], the “inhibition level compared with Vandetinib and Sunitinib” value is “greater than those exhibited by Vandetinib and Sunitinib”.

The inhibition is the drop in the measured response relative to a control, in per cent. Read a high inhibition as strong suppression. As to `COc1cc(Nc2ncc(F)c(-n3cc(C)c(CO)c3)n2)cc(OC)c1` [Compound 16, (1-(2-(3,5-dimethoxy-phenylamino)-5-fluoro-pyrimidin-4-yl)-4-methyl-1H-pyrrol-3-yl)methanol], the inhibition at 1 µM in [6] amounted to 31.9%; in experiment [7], 80.7%; in experiment [8], 34.1%; in experiment [9], 84.9%.

Regarding `Cc1cn(-c2nc(Nc3cc(C)c(OCCO)c(C)c3)ncc2C)cc1CN(C)C` [Compound 121, 2-(4-(4-(3-((dimethylamino)methyl)-4-methyl-1H-pyrrol-1-yl)-5-methylpyrimidin-2-ylamino)-2,6-dimethylphenoxy)ethanol], the 50% inhibitory concentration (IC50) in experiment [1] was 34.6 nM; in [2], 1.7 nM; in experiment [3], 2.5 nM; in experiment [4], 2.3 nM. Besides, in experiment [1], the “inhibition level compared with Vandetinib and Sunitinib” value is “greater than those exhibited by Vandetinib and Sunitinib”.

On to `Cc1cc(C)cc(Nc2ncc(F)c(-n3cc(C(=O)N4CC[C@@H](O)C4)c(C)n3)n2)c1` [Compound 38, (R)-(1-(2-(3,5-dimethylphenylamino)-5-fluoropyrimidin-4-yl)-3-methyl-1H-pyrazol-4-yl)(3-hydroxypyrrolidin-1-yl)methanone], for which the inhibition at 1 µM came to 19.3% in experiment [6]; 41.8% in [7]; 17.7% in [8]; 3.7% in [10]; 18% in [9].

Take `Cc1cc(C)cc(Nc2ncc(F)c(-n3cc(C)c(CO)c3)n2)c1` [Compound 14, (1-(2-(3,5-dimethyl-phenylamino)-5-fluoro-pyrimidin-4-yl)-4-methyl-1H-pyrrol-3-yl)methanol]: the inhibition at 1 µM is 41.3% in experiment [6]; 82.7% in experiment [7]; 36.9% in experiment [8]; 21.9% in experiment [10]; 30.6% in [9].

These data come from patent publication US8629132B2, “Kinase inhibitors” (Genosco, priority 2009, dated 2014).
